Measurements published in US8440830B2, “Tetrahydro-fused pyridines as histone deacetylase inhibitors” (4SC AG, priority 2007, dated 2013).
Where two headings read alike, the source gives them in different places.

What was measured:
[1] = system: A549 NSCLC cells; experiment: Cell cycle analysis by flow cytometry; type: cell-based, human; conditions: A549, 24 h treatment
Experimental: A549 NSCLC cells (ATTC CCL-185) are cultivated in DMEM with high glucose (supplemented with 10% FBS) at 5% CO2 and 37° C. in a humidified atmosphere under standard cell culture conditions. 24 h before compound treatment, cells are seeded at 5×10^4 cells/ml (=5×10^5 cells/10 cm cell culture dish) to allow logarithmic proliferation during the experiment. After 24 h, cells were treated with test compound or 0.5 vol % DMSO as a control. After 24 h and 48 h treatment, the culture medium is collected and detached, floating cells are collected by short centrifugation (5 min at 1200 rpm). Attached cells are washed once with 5 ml PBS, detached by treatment with 3 ml trypsin/EDTA solution (short incubation for 3-5 min) and—together with detached, floating cells—transferred into 15 ml Falcon tubes. The cell culture dish is washed with 10 ml DMEM to collect all remaining cells. After centrifugation for 5 min at 1200 rpm at room temperature, the supernatant is discarded and the cell pellet washed twice with 10 ml PBS. The supernatant is discarded, the cells resuspended in 4 ml ice-cold fixation solution (70 vol % ethanol, 30 vol % H2O; stored at −20° C.) and stored at −20° C. overnight. Next, 10 ml PBS (4° C.) is added to the cells, before centrifugation for 5 min at 1200 rpm (4° C.). The supernatant is discarded, the cell pellet washed once with 10 ml PBS (4° C.) and the cell pellet finally resuspended in about 1 ml staining solution (10 μg/ml RNAse A, 10 μg/ml propidiumiodide in PBS, final volume dependent on cell number). After incubation for 30 min at room temperature in the dark, cells are stored on ice and analyzed using the Becton Dickinson FACS Canto device. Analysis is done at an excitation of λ=488 nm with emission set as λ=600 nm.
Data analysis: Cells are analyzed according to size, granularity and propidiumiodide intensity. Size and granularity of cells are determined by measurement of forward scatter (FSC) and side scatter (SSC) of the λ=488 nm excitation light, respectively. To discriminate cells with 4N DNA content from cell doublets (two attached cells with 2N DNA content each), the ratio between the area under the propidiumiodide peak (PE-A) and the height of the propidiumiodide peak (PE-H) for each cell is determined. Cell doublets need more time to pass through the laser beam, which causes a broadening of the propidiumiodide peak and an increase of the ratio PE-A/PE-H. Using this analysis, cells in 4N and cell doublets appear as distinct clouds in a scatter plot and are excluded from the analysis. Thus, the area under the propidiumiodide peak at λ=600 nm (PE-A) is a measure for the DNA content of the cells. PE-A is blotted against the measured cell number in a histogram in order to determine the percentage of analyzed cells in an individual stage of the cell cycle.

[2] = system: A549 NSCLC cells; experiment: Cellular cytotoxicity assay (Alamar Blue), A549; type: cell-based; conditions: Homo sapiens, 72 h, upper end given as ≧100, read-out: IC50 (μM), cytotoxicity towards A549 NSCLC cells
Outline: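 Resazurin-to-resorufin fluorescence (ex 544, em 590 nm, after 4 h) gave viability as % of untreated cells following 72 h compound exposure at 37 °C. Compounds were added in semi-logarithmic dilutions 24 h post-seeding, quadruplicate wells; IC50 fitted by non-linear regression of concentration-effect curves.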

[3] = system: RKO colon carcinoma cells with conditional p21^waf1 expression; experiment: Cell cycle dependent cytotoxicity, RKO exop21 cell system; type: cell-based; conditions: Homo sapiens, 72 h
Experimental: The anti-proliferative activity of the histone deacetylase inhibitory compounds as described herein, is evaluated using the following cell lines: HeLa and HeLa-KB (cervical carcinoma), H460 (non small cell lung cancer), A549 (non-small cell lung cancer), MCF7 (breast carcinoma), MCF10A (normal, non tumorigenic breast epithelial), MDA-MB468 (breast carcinoma), MDA-MB435 (breast carcinoma), MDA-MB231 (breast carcinoma), SKBR-3 (breast carcinoma), SKOV-3 (ovarial carcinoma), A-2780 (ovarial carcinoma), RKO (colon carcinoma), HCT-15 (colon carcinoma), HCT-116 (colon carcinoma), PC3 (prostate carcinoma), BPH1 (benign prostate hyperplasia), AsPC1 (pancreatic carcinoma), Ca127 (tongue carcinoma), A-431 (vulva carcinoma), Hec1A (endometrial carcinoma), Saos-2 (osteosarcoma), U87MG (glioblastoma), WM266-4 (melanoma), K562 (chronic myeloid leukemia), EOL1 (acute hypereosinophilic myeloid leukemia), CCRF-CEM and CCRF-CEM VCR1000 (acute lymphoblastic leukemia sensitive and resistant towards Vincristine). For quantification of cellular proliferation/living cells the Alamar Blue (Resazurin) cell viability assay is applied (O'Brien et al. Eur J Biochem 267, 5421-5426, 2000). In this assay Resazurin is reduced to the fluorescent resorufine by cellular dehydrogenase activity, correlating with viable, proliferating cells. The examples are dissolved as 20 mM solutions in dimethylsulfoxide (DMSO) and subsequently diluted in semi-logarithmic steps. Cell lines are seeded at respective density into 96 well flat bottom plates in a volume of 200 μl per well. 24 h after seeding 1 μl each of the compound dilutions are added into each well of the 96 well plate. Each compound dilution is tested as quadruplicates. Wells containing untreated control cells are filled with 200 μl DMEM medium containing 0.5% v:v DMSO. The cells are then incubated with the compounds for 72 h at 37° C. in a humidified atmosphere containing 5% carbon dioxide. To determine the viability of the cells, 20 μl of a Resazurin solution (Sigma; 90 mg/l) are added. After 4 h incubation at 37° C. the fluorescence is measured at an extinction of λ=544 nm and an emission of λ=590 nm. For the calculation of the cell viability the emission value from untreated cells is set as 100% viability and the emission rates of treated cells are set in relation to the values of untreated cells. Viabilities are expressed as % values. The corresponding IC50 values of the compounds for cytotoxic activity are determined from the concentration-effect curves by means of non-linear regression.
For determination of cell-cycle dependent cytotoxicity, the RKO exop21 cell system is applied (Schmidt et al. Oncogene 19: 2423-2429, 2000). Briefly, RKO cells with/without p21^waf1 expression (2×10^4 cells/well induced, 6×10^3 cells/well not induced) are treated with the compounds for 72 h and metabolic activity quantified as described before. The expression of p21^waf1 was induced by treatment with Pronasterone A, causing a complete proliferation arrest of RKO cells in the G1 and G2 phases of the cell division cycle.

[4] = RKO arrested, p21^waf1 expressed, read-out: RKO arrested (p21^waf1 expressed) IC50
[5] = RKO proliferating, p21^waf1 not induced, read-out: RKO proliferating IC50

Question: What does the source list for `Nc1ccccc1NC(=O)c1nc2c(s1)CN(C(=O)Nc1ccc(-c3ccccc3)cc1)CC2` [Example 1, N^2-(2-aminophenyl)-N5-biphenyl-4-yl-6,7-dihydro[1,3]thiazolo[5,4-c]pyridine-2,5(4H)-dicarboxamide]?
Answer: concentration inducing arrest in G1, depletion of cells in the S-phase and reduction of cells in the G2/M-phase [1]: around 3 μM; IC50 [2]: ≥ 0.2 µM; IC50 [3, 4]: 1100 to 4900 nM; IC50 [3, 5]: 1100 to 4000 nM

Question: For `CN(C)c1ccc(NC(=O)N2CCc3nc(C(=O)Nc4ccccc4N)sc3C2)cc1` [Example 2, N^2-(2-aminophenyl)-N5-[4-(dimethylamino)phenyl]-6,7-dihydro[1,3]thiazolo[5,4-c]pyridine-2,5(4H)-dicarboxamide], which “concentration inducing arrest in G1, depletion of cells in the S-phase and reduction of cells in the G2/M-phase” value [1] is on record?
Answer: The value was “around 3 μM”.

Question: What about the IC50 [2] of the same compound?
Answer: The IC50 was at least 0.2 µM.

Question: What about the IC50 [3, 4] of the same compound?
Answer: The IC50 was 1100 to 4900 nM.

Question: What about the IC50 [3, 5] of the same compound?
Answer: The IC50 was 1100 to 4000 nM.

Question: `COc1ccc(NC(=O)N2CCc3nc(C(=O)Nc4ccccc4N)sc3C2)cc1` [Example 3, N^2-(2-aminophenyl)-N5-(4-methoxyphenyl)-6,7-dihydro[1,3]thiazolo[5,4-c]pyridine-2,5(4H)-dicarboxamide] was tested. Which “concentration inducing arrest in G1, depletion of cells in the S-phase and reduction of cells in the G2/M-phase” value [1] did it give?
Answer: Its value is “around 3 μM”.

Question: And the IC50 [2]?
Answer: The IC50 was at least 0.2 µM.

Question: What about the IC50 [3, 4] of the same compound?
Answer: Its IC50 is 1100 to 4900 nM.

Question: What about the IC50 [3, 5] of the same compound?
Answer: The IC50 was 1100 to 4000 nM.

Question: Which “concentration inducing arrest in G1, depletion of cells in the S-phase and reduction of cells in the G2/M-phase” value [1] does the source give for `Nc1ccccc1NC(=O)c1nc2c(s1)CN(C(=O)Nc1cnc3ccccc3c1)CC2` [Example 12, N^2-(2-aminophenyl)-N5-quinolin-3-yl-6,7-dihydro[1,3]thiazolo[5,4-c]pyridine-2,5(4H)-dicarboxamide] here?
Answer: The value was “around 3 μM”.

Question: What about the IC50 [2] of the same compound?
Answer: Its IC50 is at least 0.2 µM.

Question: And the IC50 [3, 4]?
Answer: Its IC50 is 1100 to 4900 nM.

Question: What about the IC50 [3, 5] of the same compound?
Answer: The IC50 was 1100 to 4000 nM.
